The values below come from the supplement of paper PMC10307832.

What all share (assay): relative viability (nuclei count vs DMSO), 5 days (fraction); higher = more cells survive
Compound in assay [1]: NCC(=O)Nc1ccc(-n2nc(C(F)(F)F)cc2-c2ccc3c(ccc4ccccc43)c2)cc1 + Cc1nc(NC(=O)N2CCC[C@H]2C(N)=O)sc1-c1ccnc(C(C)(C)C(F)(F)F)c1 [Alpelisib] (partner 2 µM)
A digest of the protocol:
(§1)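 Lung cancer cell lines, seeded in 1536-well plates, were treated the following day by pin tool with a single drug or with five library-drug doses (not always all listed) in √10 steps on top of a fixed anchor-drug dose. Cells were fixed and nuclei stained in one step after 5 days, and nuclei were counted. Relative viability is the nuclei count for treated wells divided by that for vehicle wells, reported as medians of duplicate plates.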

Compound in assay [2]: C1CSC2=C(C(=O)N1)SC3=C2C=C(C=C3)O [kb NB 142-70] + CC(=O)c1c(C)c2cnc(Nc3ccc(N4CCNCC4)cn3)nc2n(C2CCCC2)c1=O [Palbociclib] (partner 0.5 µM)
The method, boiled down: as §1

Compound in assay [3]: C1CSC2=C(C(=O)N1)SC3=C2C=C(C=C3)O [kb NB 142-70] + C[C@]1(O)C[C@@H](c2nc(-c3ccc4ccc(-c5ccccc5)nc4c3)c3c(N)nccn32)C1 [Linsitinib] (partner 1 µM)
The method, boiled down: as §1

Compound in assay [4]: C1CSC2=C(C(=O)N1)SC3=C2C=C(C=C3)O [kb NB 142-70] + CC1(C)CCC(c2ccc(Cl)cc2)=C(CN2CCN(c3ccc(C(=O)NS(=O)(=O)c4ccc(N[C@H](CCN5CCOCC5)CSc5ccccc5)c(S(=O)(=O)C(F)(F)F)c4)cc3)CC2)C1 [Navitoclax] (partner 0.5 µM)
A digest of the protocol: as §1

Compound in assay [5]: NCC(=O)Nc1ccc(-n2nc(C(F)(F)F)cc2-c2ccc3c(ccc4ccccc43)c2)cc1 + N=C(N)NC(=N)NCCc1ccccc1 [Phenformin] (partner 250 µM)
A digest of the protocol: as §1

For the cell line NCI-H1355, the relative viability in assay [1] (first compound 0.02 µM) turned out to be 0.781; in assay [1] (first compound 0.06325 µM), 0.949; in assay [1] (first compound 0.2 µM), 0.825; in assay [1] (first compound 0.6325 µM), 0.838; in assay [1] (first compound 2 µM), 0.865; in assay [2] (first compound 0.1 µM), 0.417. The relative viability came to 0.39 in assay [2] (first compound 1 µM); 0.404 in assay [2] (first compound 3.162 µM); 0.781 in assay [3] (first compound 0.1 µM); 0.835 in assay [3] (first compound 1 µM); 0.757 in assay [3] (first compound 3.162 µM); 1.02 in assay [4] (first compound 0.1 µM). Further, the relative viability was 0.881 in assay [4] (first compound 1 µM); 0.936 in assay [4] (first compound 3.162 µM); 0.465 in assay [5] (first compound 0.02 µM); 0.497 in assay [5] (first compound 0.06325 µM); 0.419 in assay [5] (first compound 0.2 µM); 0.483 in assay [5] (first compound 0.6325 µM). Moreover, the relative viability in assay [5] (first compound 2 µM) was 0.522.

Take NCI-H1395: the relative viability in assay [1] (first compound 0.02 µM) was determined as 1.04; in assay [1] (first compound 0.06325 µM), 1.1; in assay [1] (first compound 0.2 µM), 1.3; in assay [1] (first compound 0.6325 µM), 1.13; in assay [1] (first compound 2 µM), 1.05; in assay [2] (first compound 0.1 µM) it was 0.582. Also, the relative viability in assay [2] (first compound 1 µM) amounted to 0.685; in assay [2] (first compound 3.162 µM) it was 0.631; in assay [3] (first compound 0.1 µM), 1.15; in assay [3] (first compound 1 µM), 1.26; in assay [3] (first compound 3.162 µM) it was 0.765; in assay [4] (first compound 0.1 µM), 1.26. Also, the relative viability in assay [4] (first compound 1 µM) is 1.23; in assay [4] (first compound 3.162 µM), 0.826; in assay [5] (first compound 0.02 µM), 0.5; in assay [5] (first compound 0.06325 µM), 0.422; in assay [5] (first compound 0.2 µM), 0.434; in assay [5] (first compound 0.6325 µM) it was 0.469. In addition, in assay [5] (first compound 2 µM), the relative viability came out at 0.475.

For NCI-H1437, the relative viability in assay [1] (first compound 0.02 µM) was 0.944; in assay [1] (first compound 0.06325 µM) it was 0.995; in assay [1] (first compound 0.2 µM), 0.999; in assay [1] (first compound 0.6325 µM) it was 0.913; in assay [1] (first compound 2 µM) it was 0.918; in assay [2] (first compound 0.1 µM), 0.337. Moreover, the relative viability in assay [2] (first compound 1 µM) was determined as 0.297; in assay [2] (first compound 3.162 µM), 0.279; in assay [3] (first compound 0.1 µM), 1.15; in assay [3] (first compound 1 µM) it was 1.1; in assay [3] (first compound 3.162 µM), 1.07; in assay [4] (first compound 0.1 µM), 1.05. In addition, the relative viability in assay [4] (first compound 1 µM) stood at 1.13; in assay [4] (first compound 3.162 µM), 1.02; in assay [5] (first compound 0.02 µM) it was 0.247; in assay [5] (first compound 0.06325 µM), 0.302; in assay [5] (first compound 0.2 µM), 0.331; in assay [5] (first compound 0.6325 µM) it was 0.308. Besides, in assay [5] (first compound 2 µM), the relative viability turned out to be 0.339.

As to NCI-H1651, the relative viability in assay [1] (first compound 0.02 µM) worked out at 0.927; in assay [1] (first compound 0.06325 µM), 0.964; in assay [1] (first compound 0.2 µM), 0.969; in assay [1] (first compound 0.6325 µM), 0.847; in assay [1] (first compound 2 µM) it was 0.941; in assay [2] (first compound 0.1 µM), 0.527. For the same cell line, the relative viability was 0.555 in assay [2] (first compound 1 µM); 0.526 in assay [2] (first compound 3.162 µM); 1.04 in assay [3] (first compound 0.1 µM); 0.929 in assay [3] (first compound 1 µM); 0.376 in assay [3] (first compound 3.162 µM); 1.07 in assay [4] (first compound 0.1 µM). Moreover, the relative viability worked out at 1.03 in assay [4] (first compound 1 µM); 0.39 in assay [4] (first compound 3.162 µM); 0.313 in assay [5] (first compound 0.02 µM); 0.387 in assay [5] (first compound 0.06325 µM); 0.327 in assay [5] (first compound 0.2 µM); 0.371 in assay [5] (first compound 0.6325 µM). The relative viability in assay [5] (first compound 2 µM) worked out at 0.313.
